Data on 2 compounds can be found in US7226892B2, “Herbicidal composition and use” (Durga Technologies ApS, priority 2003, dated 2007).

For series [1] the following is noted: respiratory tract/lungs, eyes, skin; cited from earlier work.
For series [2], the system named is mixed vegetation of grasses and weeds. Briefly: Spraying of glycine solution onto mixed vegetation. Format: in vivo. To be noted: glycine alone, summary statement. An excerpt:
A common squirt bottle delivering a fine spray was used for spraying the weeds.
A solution of 90 g of glycine+15 g of the surfactant “Witconol® SN 90” in 1 L of water was sprayed onto a mixed vegetation of grasses and weeds until the spray liquid dripped from the leaves, corresponding to 0.1 L/m^2.

The structures appear in SMILES notation.

Take `O=C(O)CC(O)(CC(=O)O)C(=O)O` [citric acid, Citric Acid Monohydrate, reference compound]: the “risk identification / classification as irritant” value in series [1] is on record as “Irritates respiratory tract/lungs, irritates eyes, skin irritating”.
For the compound `NCC(=O)O` [glycine, 2-aminoethanoic acid], the “risk identification / classification as irritant” value in series [1] is given as “not classified as an irritant”. The “herbicidal activity of glycine per se” value in series [2] is “no noticeable herbicidal activity”.
